Results taken from the supplement of paper PMC10307832.

Columns and labels:
Test in all cases: relative viability (nuclei count vs DMSO), 5 days (fraction); higher = more cells survive
[1] = compound: NC(=O)c1ccc(N(C(N)=O)c2c(F)cccc2F)nc1-c1ccc(F)cc1F [VX-702] + COc1cc2c(Oc3ccc(NC(=O)C4(C(=O)Nc5ccc(F)cc5)CC4)cc3F)ccnc2cc1OCCCN1CCOCC1 [Foretinib] (partner 0.25 µM)
Summary of the method: (§1)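 Relative viability was taken as the ratio of nuclei in treated wells to nuclei in vehicle wells. Lung cancer cell lines in 1536-well plates received compounds by pin tool one day after seeding, either one drug alone or a fixed anchor-drug dose plus five library-drug doses (not always all listed) in √10 steps. Nuclei were counted on 4× images after 5 days of treatment, and values are medians of duplicate plates.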

[2] = compound: NC(=O)c1ccc(N(C(N)=O)c2c(F)cccc2F)nc1-c1ccc(F)cc1F [VX-702] + C[C@]1(O)C[C@@H](c2nc(-c3ccc4ccc(-c5ccccc5)nc4c3)c3c(N)nccn32)C1 [Linsitinib] (partner 1 µM)
Summary of the method: as §1

[3] = compound: CC(C)(C)c1nc(-c2cccc(NS(=O)(=O)c3c(F)cccc3F)c2F)c(-c2ccnc(N)n2)s1 [Dabrafenib] + Cc1cc(Nc2cc(N3CCN(C)CC3)nc(Sc3ccc(NC(=O)C4CC4)cc3)n2)n[nH]1 [Tozasertib] (partner 0.1 µM)
Summary of the method: as §1

[4] = compound: NC(=O)c1ccc(N(C(N)=O)c2c(F)cccc2F)nc1-c1ccc(F)cc1F [VX-702] + CC(C)C[C@H](NC(=O)[C@H](Cc1ccccc1)NC(=O)c1cnccn1)B(O)O [Bortezomib] (partner 0.002 µM)
Summary of the method: as §1

| Cell Line | relative viability ([1]; first compound 0.02 µM) | relative viability ([1]; first compound 0.2 µM) | relative viability ([1]; first compound 0.6325 µM) | relative viability ([1]; first compound 2 µM) | relative viability ([2]; first compound 0.02 µM) | relative viability ([2]; first compound 0.2 µM) | relative viability ([2]; first compound 0.6325 µM) | relative viability ([2]; first compound 2 µM) | relative viability ([3]; first compound 0.003 µM) | relative viability ([3]; first compound 0.009487 µM) | relative viability ([3]; first compound 0.03 µM) | relative viability ([3]; first compound 0.09487 µM) | relative viability ([3]; first compound 0.3 µM) | relative viability ([4]; first compound 0.02 µM) | relative viability ([4]; first compound 0.2 µM) | relative viability ([4]; first compound 0.6325 µM) | relative viability ([4]; first compound 2 µM) |
| --- | --- | --- | --- | --- | --- | --- | --- | --- | --- | --- | --- | --- | --- | --- | --- | --- | --- |
| HOP-62 | 1.18 | 1.19 | 1.25 | 1.33 | 0.918 | 0.851 | 1.04 | 1.05 | 0.422 | 0.39 | 0.331 | 0.362 | 0.399 | 0.67 | 0.566 | 0.696 | 0.653 |
| IA-LM | 1.21 | 1.1 | 1.2 | 1.15 | 0.585 | 0.723 | 0.606 | 0.557 |  |  |  |  |  | 0.787 | 0.796 | 0.872 | 0.919 |
| LC-2-ad | 0.765 | 0.958 | 0.838 | 0.99 | 0.778 | 0.799 | 0.922 | 0.885 |  | 0.453 | 0.422 | 0.447 | 0.429 | 1.08 | 1.08 | 1.12 | 1.22 |
| LCLC-97TM1 | 0.836 | 0.923 | 0.938 | 0.991 | 0.131 | 0.189 | 0.172 | 0.207 | 0.218 | 0.209 | 0.287 | 0.249 | 0.186 | 0.526 | 0.592 | 0.667 | 0.709 |
| LCLC-103H | 0.71 | 0.702 | 0.534 | 0.881 | 1.23 | 0.954 | 1.12 | 1 | 0.401 | 0.514 | 0.424 | 0.44 | 0.5 | 1.17 | 0.949 | 1.05 | 1.11 |
| LK-2 | 0.985 | 1.21 | 1.08 | 1.11 | 0.711 | 0.436 |  | 0.542 | 0.182 | 0.174 |  | 0.174 | 0.152 |  |  |  |  |
| LOU-NH91 | 0.94 | 0.973 | 0.994 | 0.704 | 1.01 | 0.926 | 0.933 | 0.687 | 0.704 | 0.78 | 0.679 | 0.698 | 0.761 | 0.507 | 0.502 | 0.513 | 0.532 |
| LU99A | 0.871 | 0.677 | 0.786 | 0.721 | 0.511 | 0.517 | 0.466 | 0.515 | 0.258 | 0.287 | 0.255 | 0.277 | 0.306 | 1.09 | 1.05 | 1.14 | 0.934 |
| LXF-289 | 1.04 | 0.962 | 0.958 | 0.98 | 0.941 | 0.961 | 0.931 | 0.96 | 0.192 | 0.178 | 0.116 | 0.203 | 0.187 | 1.03 | 1.03 | 0.998 | 1.02 |
| NCI-H23 | 0.961 | 1.03 | 1.15 | 1.21 | 0.517 | 0.528 | 0.545 | 0.754 |  | 0.431 | 0.344 | 0.337 | 0.375 | 1.07 | 0.892 | 1.22 | 1.16 |
| NCI-H358 | 0.692 | 0.598 | 0.663 | 0.936 | 0.748 | 0.728 | 0.613 | 0.963 | 0.102 | 0.0949 | 0.0962 | 0.106 | 0.0813 |  |  |  |  |
| NCI-H522 |  |  |  |  |  |  |  |  |  | 0.471 | 0.59 | 0.58 | 0.621 |  |  |  |  |
| NCI-H1299 | 1.15 | 1.14 | 1.15 | 1.22 | 1.17 | 0.999 | 1.06 | 1.09 |  |  |  |  |  | 1.09 | 1.03 | 1.12 | 1.09 |
| NCI-H1395 | 0.986 | 1.03 | 0.968 | 1.12 | 0.965 | 1.28 | 0.976 | 1.47 | 0.718 | 0.633 | 0.762 | 0.667 | 0.648 |  |  |  |  |
| NCI-H1563 | 1.04 | 0.914 | 1 | 0.822 | 1.23 | 1.15 | 1.18 | 1.14 |  |  |  |  |  | 0.812 | 0.891 | 0.918 | 0.616 |
| NCI-H1648 |  |  |  |  |  |  |  |  | 0.641 | 0.463 | 0.685 | 0.396 | 0.376 |  |  |  |  |
| NCI-H1650 | 1.04 | 1.17 | 1.02 | 1.29 |  |  |  |  | 0.524 | 0.563 | 0.408 | 0.419 | 0.384 | 0.195 | 0.207 | 0.189 | 0.185 |
| NCI-H1703 | 0.32 | 0.367 | 0.325 | 0.395 | 0.531 | 0.717 | 0.937 | 1.26 |  |  |  |  |  | 0.286 | 0.37 | 0.255 | 0.289 |
| NCI-H1792 |  |  |  |  | 0.404 | 0.484 | 0.458 | 0.5 |  |  |  |  |  | 0.863 | 0.978 | 0.966 | 1.21 |
| NCI-H1793 | 0.671 | 0.705 | 0.703 | 0.719 | 0.815 | 0.73 | 0.687 | 0.974 |  | 0.464 |  |  | 0.293 |  |  |  |  |
| NCI-H1944 | 0.812 | 0.821 | 0.798 | 0.71 | 1.07 | 1.06 | 1.31 | 0.903 | 0.252 | 0.262 | 0.233 | 0.254 | 0.239 |  |  |  |  |
| NCI-H2170 | 1.07 | 1 | 1.08 | 1.03 |  |  |  |  | 0.805 | 0.811 | 0.632 | 0.62 | 0.727 |  |  |  |  |
| NCI-H2342 | 0.887 | 1.07 | 1.02 | 1.14 |  |  |  |  | 0.44 | 0.484 | 0.452 | 0.52 | 0.586 |  |  |  |  |
| SK-MES-1 | 0.935 | 0.97 | 0.934 | 0.911 | 1.06 | 0.997 | 1.04 | 1.1 | 0.863 | 0.874 | 0.861 | 0.811 | 0.565 |  |  |  |  |
| SW 900 | 0.726 | 1.02 | 0.9 | 0.958 |  |  |  |  |  | 0.711 | 0.527 |  | 0.632 |  |  |  |  |
